Reference: ChEMBL document CHEMBL1137501, “Identification and synthesis of major metabolites of Vasopressin V2-receptor agonist WAY-151932, and antagonist, Lixivaptan” (Bioorg Med Chem Lett, 2007)

Legend:
Rattus norvegicus [1] = assay: Effect on urine volume in rat 10 mg/kg, po relative to control; type: functional
Vasopressin V2 receptor [2] = target: T1, Vasopressin V2 receptor (Homo sapiens, UniProt P30518); assay: Displacement of [3H]AVP from human vasopressin V2 receptor expressed in CHO cells at 1000 nM; type: cell-based
T1 sequence (P30518 whole entry): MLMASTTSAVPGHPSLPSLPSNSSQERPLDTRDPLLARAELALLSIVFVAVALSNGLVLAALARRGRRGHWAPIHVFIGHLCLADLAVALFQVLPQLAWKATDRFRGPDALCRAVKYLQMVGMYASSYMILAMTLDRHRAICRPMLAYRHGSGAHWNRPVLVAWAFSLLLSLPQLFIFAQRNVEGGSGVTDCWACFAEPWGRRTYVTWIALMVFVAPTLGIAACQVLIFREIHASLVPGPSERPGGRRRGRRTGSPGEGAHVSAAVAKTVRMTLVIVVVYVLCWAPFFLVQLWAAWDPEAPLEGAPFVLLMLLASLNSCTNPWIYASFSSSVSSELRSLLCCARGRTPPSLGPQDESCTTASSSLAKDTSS

Vasopressin V1a receptor [3] = target: T2, Vasopressin V1a receptor (Homo sapiens, UniProt P37288); assay: Displacement of [3H]manning ligand from human vasopressin V1a receptor expressed in CHO cells at 1000 nM; type: cell-based
Target sequence in this assay (P37288 whole entry, looked up): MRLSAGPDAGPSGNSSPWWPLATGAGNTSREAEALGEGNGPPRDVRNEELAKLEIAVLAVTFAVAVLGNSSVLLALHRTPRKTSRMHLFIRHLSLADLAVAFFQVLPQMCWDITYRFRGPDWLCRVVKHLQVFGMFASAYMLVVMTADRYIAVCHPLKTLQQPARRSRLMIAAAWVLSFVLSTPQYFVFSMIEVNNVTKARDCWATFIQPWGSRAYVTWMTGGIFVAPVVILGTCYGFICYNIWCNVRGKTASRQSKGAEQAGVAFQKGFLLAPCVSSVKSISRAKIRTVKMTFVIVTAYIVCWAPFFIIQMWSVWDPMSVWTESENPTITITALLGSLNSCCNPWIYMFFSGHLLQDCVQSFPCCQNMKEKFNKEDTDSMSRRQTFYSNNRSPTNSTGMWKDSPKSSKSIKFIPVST

Vasopressin V2 receptor [4] = target: T1, Vasopressin V2 receptor; assay: Displacement of [3H]AVP from human vasopressin V2 receptor expressed in mouse LV2 cells; type: cell-based
Vasopressin V2 receptor [5] = target: T1, Vasopressin V2 receptor; assay: Displacement of [3H]AVP from human vasopressin V2 receptor expressed in CHO cells; type: cell-based
Oxytocin receptor = target: T3, Oxytocin receptor (Homo sapiens, UniProt P30559); assay: Displacement of [3H]oxytocin from human oxytocin receptor expressed in CHO cells; type: cell-based
T3 sequence (P30559 whole entry): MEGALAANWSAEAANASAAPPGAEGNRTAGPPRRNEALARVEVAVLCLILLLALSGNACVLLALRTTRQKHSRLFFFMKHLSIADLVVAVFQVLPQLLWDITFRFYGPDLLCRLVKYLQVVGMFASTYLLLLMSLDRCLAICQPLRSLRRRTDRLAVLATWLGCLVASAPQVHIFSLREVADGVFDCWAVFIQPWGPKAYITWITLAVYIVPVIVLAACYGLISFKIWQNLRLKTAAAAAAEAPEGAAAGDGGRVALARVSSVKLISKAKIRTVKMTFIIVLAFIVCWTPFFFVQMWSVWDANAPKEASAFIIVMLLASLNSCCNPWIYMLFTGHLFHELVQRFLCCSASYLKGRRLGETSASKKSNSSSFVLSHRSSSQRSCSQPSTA

Vasopressin V1a receptor [6] = target: T2, Vasopressin V1a receptor; assay: Displacement of [3H]manning ligand from human vasopressin V1a receptor expressed in CHO cells; type: cell-based
Target sequence in this assay (P37288 whole entry): as the sequence (P37288 whole entry, looked up) above

[7] = target: T4, Oxytocin receptor (Homo sapiens) (UniProt P30559); assay: Displacement of [3H]oxytocin from human oxytocin receptor expressed in CHO cells at 1000 nM; type: cell-based
T4 sequence (whole entry): T3 sequence (P30559 whole entry)

Rattus norvegicus [8] = assay: Effect on urine volume in rat 10 mg/kg, iv relative to control; type: functional
Vasopressin V1a receptor [9] = target: T2, Vasopressin V1a receptor; assay: Displacement of [3H]manning ligand from human vasopressin V1a receptor expressed in CHO cells at 100 nM; type: cell-based
Target sequence in this assay (P37288 whole entry, looked up): as the sequence (P37288 whole entry, looked up) above

Vasopressin V2 receptor [10] = target: T1, Vasopressin V2 receptor; assay: Displacement of [3H]AVP from human vasopressin V2 receptor expressed in CHO cells at 100 nM; type: cell-based
[11] = target: T4, Oxytocin receptor (Homo sapiens); assay: Displacement of [3H]oxytocin from human oxytocin receptor expressed in CHO cells at 100 nM; type: cell-based

Row | IC50 (Oxytocin receptor) | IC50 (Vasopressin V1a receptor [6]) | SMILES | Activity (Rattus norvegicus [1]) | other results
1 | – | – | O=C(O)c1ccn(-c2ccc(C(=O)N3Cc4cccn4Cc4ccccc43)c(Cl)c2)n1 | 0% | –
2 | – | – | Cc1ccn(-c2ccc(C(=O)Nc3ccccc3C(=O)O)c(Cl)c2)n1 | – | inhibition (Vasopressin V2 receptor [2]): 3%; inhibition (Vasopressin V1a receptor [3]): -7%
3 | – | – | Cc1ccn(-c2ccc(C(=O)N3C=C4CCC(=O)N4Cc4ccccc43)c(Cl)c2)n1 | 0% | IC50 (Vasopressin V2 receptor [4]): 1210 nM; inhibition (Vasopressin V1a receptor [3]): 4%
4 | > 1000 nM | > 1000 nM | Cc1ccc(F)cc1C(=O)Nc1ccc(C(=O)N2C=C3CCC(=O)N3Cc3ccccc32)c(Cl)c1 | 133% | IC50 (Vasopressin V2 receptor [5]): 11 nM
5 | – | – | Cc1ccn(-c2ccc(C(=O)N3CC4=CCC(=O)N4Cc4ccccc43)c(Cl)c2)n1 | 0% | inhibition (Vasopressin V2 receptor [2]): 40%; inhibition (Vasopressin V1a receptor [3]): -3%; inhibition [7]: 9%
6 | > 1000 nM | > 1000 nM | Cc1ccc(F)cc1C(=O)Nc1ccc(C(=O)Nc2ccccc2Cn2cccc2C(=O)O)c(Cl)c1 | – | Activity (Rattus norvegicus [8]): 6.9%; IC50 (Vasopressin V2 receptor [5]): > 1000 nM
7 | 519 nM | 124 nM | Cc1ccc(F)cc1C(=O)Nc1ccc(C(=O)N2Cc3cccn3Cc3ccccc32)c(Cl)c1 [LIXIVAPTAN] | 740% | –
8 | – | – | Cc1ccc(F)cc1C(=O)Nc1ccc(C(=O)Nc2ccccc2Cn2cccc2C=O)c(Cl)c1 | – | inhibition (Vasopressin V1a receptor [9]): -6%; inhibition (Vasopressin V2 receptor [10]): 3%; inhibition [11]: 12%
9 | – | – | O=C(c1ccc(-n2ccc(CO)n2)cc1Cl)N1Cc2cccn2Cc2ccccc21 | -82% | –
10 | – | – | Cc1ccn(-c2ccc(C(=O)Nc3ccccc3Cn3cccc3C(=O)O)c(Cl)c2)n1 | – | inhibition (Vasopressin V2 receptor [2]): 1%; inhibition [7]: -10%
11 | > 1000 nM | > 1000 nM | Cc1ccc(F)cc1C(=O)Nc1ccc(C(=O)Nc2ccccc2C(=O)O)c(Cl)c1 | – | Activity (Rattus norvegicus [8]): -6%; IC50 (Vasopressin V2 receptor [5]): > 1000 nM
12 | – | – | Cc1ccc(F)cc1C(=O)Nc1ccc(C(=O)N2C=C3C(O)CC(=O)N3Cc3ccccc32)c(Cl)c1 (stereo not drawn) | 102% | –
13 | – | – | Cc1ccn(-c2ccc(C(=O)N3CC4C=CC(=O)N4Cc4ccccc43)c(Cl)c2)n1 (stereo not drawn) | 16% | inhibition (Vasopressin V2 receptor [2]): 16%; inhibition (Vasopressin V1a receptor [3]): -8%; inhibition [7]: -4%
14 | – | – | Cc1ccc(F)cc1C(=O)Nc1ccc(C(=O)N2CC3=CCC(=O)N3Cc3ccccc32)c(Cl)c1 | 131% | –
15 | 353 nM | – | Cc1ccn(-c2ccc(C(=O)N3Cc4cccn4Cc4ccccc43)c(Cl)c2)n1 | -82% | –
16 | > 1000 nM | > 1000 nM | Cc1ccc(F)cc1C(=O)Nc1ccc(C(=O)N2CC3C=CC(=O)N3Cc3ccccc32)c(Cl)c1 (stereo not drawn) | -26% | IC50 (Vasopressin V2 receptor [5]): 34 nM
